For this experiment, the target named is furin (Homo sapiens, UniProt P09958). Put plainly: fluorogenic furin protease assay (BPS Bioscience kit), IC50 in triplicate. Format: biochemical. The following applies: read-out: Biological Activity ^2 [IC50; μM] ^3 or % Inhibition ^4.

By IC50 is commonly meant the concentration needed to halve the response being measured.

Chain of furin (P09958 108-794): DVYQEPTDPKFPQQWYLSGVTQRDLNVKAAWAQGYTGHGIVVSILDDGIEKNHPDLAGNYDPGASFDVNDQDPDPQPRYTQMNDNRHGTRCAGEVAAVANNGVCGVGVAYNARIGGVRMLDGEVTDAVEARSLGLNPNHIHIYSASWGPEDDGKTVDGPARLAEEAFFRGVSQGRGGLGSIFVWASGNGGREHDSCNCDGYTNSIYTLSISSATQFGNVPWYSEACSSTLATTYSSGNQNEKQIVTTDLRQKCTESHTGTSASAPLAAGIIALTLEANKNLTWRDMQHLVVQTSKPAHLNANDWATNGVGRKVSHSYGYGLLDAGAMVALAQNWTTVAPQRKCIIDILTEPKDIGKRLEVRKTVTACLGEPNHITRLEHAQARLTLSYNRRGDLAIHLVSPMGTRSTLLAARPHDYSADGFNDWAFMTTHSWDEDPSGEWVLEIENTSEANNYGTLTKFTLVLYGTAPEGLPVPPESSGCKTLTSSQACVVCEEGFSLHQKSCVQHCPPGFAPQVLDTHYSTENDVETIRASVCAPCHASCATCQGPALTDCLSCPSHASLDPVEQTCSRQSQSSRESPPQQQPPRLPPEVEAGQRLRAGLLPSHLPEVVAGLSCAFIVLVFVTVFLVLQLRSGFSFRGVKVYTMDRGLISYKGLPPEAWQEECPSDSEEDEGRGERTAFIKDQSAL

With `COc1ccccc1/C=C1/SC(=S)N(CCC(=O)Nc2ccc(S(=O)(=O)Nc3nccs3)cc2)C1=O` [compound 4, N-[4-(1,3-thiazol-2-ylaminosulfonyl)phenyl]-3-{(E)-5-[(2-methoxyphenyl)methylene]-4-oxo-2-thioxo-1,3-thiazolidin-3-yl}propionamide], the IC50 stood at 17.6 ± 2.29 µM.

The record behind these values is paper PMC11859198, “Identification of Furin Protease Small-Molecule Inhibitor with a 1,3-Thiazol-2-ylaminosulfonyl Scaffold” (Pharmaceuticals, 2025).
